Numbers after ± are expanded uncertainties.

The data set in a line: refractive index (Na D-line) (dimensionless). The settings on record: 293.15 K; 101.33 kPa; Liquid; Standard Abbe refractometry.

Regarding `C1CCCCC1` [cyclohexane], the refractive index (as a rule, the speed of light in vacuum divided by its phase velocity in the sample) is 1.4265 ± 0.0007.

`CCC(=O)O` [propanoic acid]: the refractive index was 1.381 ± 0.0007.

For the compound `CCO` [ethanol], the refractive index is 1.3612 ± 0.0007.

Turning to `CCCCCC` [hexane], the refractive index is 1.3749 ± 0.0007.

Regarding `CCCCCCCCCC` [decane], the refractive index was 1.4105 ± 0.0007.

In the case of `CCCCC(=O)O` [pentanoic acid], the refractive index is 1.4087 ± 0.0007.

As for `CC(C)C(=O)O` [2-methylpropanoic acid], the refractive index was 1.3933 ± 0.0007.

Values taken from the NIST ThermoML archive (doi:10.1016/j.fluid.2005.08.006).
